This is an account of results in a melting point compilation (Tetko et al.).

In general, melting point refers to the temperature, or range, at which the solid turns liquid. Regarding `ON=Cc1ccccc1Cl`, the melting point was in the range of 72 to 77 °C. In turn, `O=C(O)C1CCC1C(=O)O` (centres undefined) showed a melting point of 131 °C. Under `Cc1ccc2c(c1)CCCC2` stands -40 °C; under `CC(=O)Nc1ccc(N)cn1`, 154 °C; under `CC1(C)OC(C)(C(O)(c2cccc3ccccc23)c2cccc3ccccc23)CCC1C(=O)O` (centres undefined), 210 to 211 °C. To `NNc1c(F)cc(F)cc1F` belongs 99 °C; to `O=C(O)CC(=O)CC(=O)O`, 133 °C. Under `Cc1cc(C)c(CC(=O)c2oc3ccccc3c2NC(=O)Cc2ccccc2)c(C)c1` stands 156 to 157 °C; under `O=C1c2ccccc2CC1Br` (centres undefined), 39 to 44 °C; under `O=C1c2ccccc2C(=O)c2cc(O)ccc21`, 306 °C. Compound `Cc1cc(O)cc(C)c1C#N` came in with a melting point of 176 to 177 °C. Take `Cc1nc(/C(C#N)=N/Nc2cccc(C(F)(F)F)c2)sc1/N=N/c1ccc(F)cc1`: the melting point is 211 °C. To `O=CC=CC=Cc1ccccc1` belongs 42.5 °C; to `COc1ccccc1C1Nn2c(COc3ccccc3)nnc2S1` (centres undefined), 126 °C; to `Cc1ccccc1-c1cc(-c2ccccc2)[nH]n1`, 107 to 108 °C. Under `CC(C)(C)C(CCC(=O)O)CC(=O)O` (centres undefined) stands 114 to 117 °C.

Take `N#CCc1coc2ccccc12`: the melting point lay in the range of 39 to 41 °C. To `CCOC(=O)c1c(SC)n[nH]c1N` belongs 142 to 143 °C; to `CC[C@H](CO)N1Cc2ccccc2C1`, 56 to 61 °C; to `O=P1(O)Oc2ccc3ccccc3c2-c2c(ccc3ccccc23)O1`, 320 °C.

In turn, `O=C(OCCO)c1ccccc1O` registered a melting point of 37 °C. Under `COc1ccc(C(c2ccc(OC)cc2)C(Cl)(Cl)Cl)cc1` stands 87 °C; under `OC1CCCC1C1CCCC1` (centres undefined), 20 °C; under `CCOC(=O)c1coc(Cl)n1`, 97.5 °C. To `c1ccc(C2=NNCC2)cc1` belongs 45.8 °C. To `CN(N)C(=O)c1cc(Cl)ccc1N` belongs 78 to 81 °C; to `NS(=O)(=O)c1ccc(Br)s1`, 139 to 141 °C. As for `O=[N+]([O-])c1cccc(-c2nnc3n2NC(c2ccccc2)S3)c1` (centres undefined), the melting point came to 205 °C. To `CN1c2ccccc2C(C)(C)C12C=Cc1cc([N+](=O)[O-])ccc1O2` (centres undefined) belongs 180 °C; to `CC1=C(C(=O)OC(C)C)C(c2ccc3c(c2)OCO3)NC(=O)N1` (centres undefined), 186 °C.

As for `CCCOc1ccc(C(N)=NO)cc1`, the melting point lay in the range of 105 to 106 °C. Turning to `Cn1ncc2c(Cl)ncnc21`, the melting point fell in the range of 97 to 100 °C. To `COC(=O)c1ccc(Br)cn1` belongs 101 °C.

For `O=C(CCl)Nc1cccc(C(F)(F)F)c1`, the melting point lay within 62.5 to 64 °C. Compound `O=C(Oc1ccccc1)c1c2ccccc2nc2ccccc12` came in with a melting point of 188 to 192 °C. Under `O=C(NCC[C@H](O)C(=O)O)OCc1ccccc1` stands 72 to 78 °C. As to `O=[N+]([O-])c1ccc(N/N=C2\Cc3ccccc32)c([N+](=O)[O-])c1`, the melting point stood at 203 °C. Under `FC(F)(F)C(F)(F)C(F)(F)C(F)(F)N(C(F)(F)C(F)(F)C(F)(F)C(F)(F)F)C(F)(F)C(F)(F)C(F)(F)C(F)(F)F` stands -50 °C; under `BrC(=Cc1ccccc1)c1ccc(Br)c2c(Br)cccc12`, 171 °C; under `Cn1nc(CCl)cc1-c1ccco1`, 72 to 73 °C. Regarding `CC(=C(CCOC(=O)c1ccccc1)SSC(CCOC(=O)c1ccccc1)=C(C)N(C=O)Cc1cnc(C)nc1N)N(C=O)Cc1cnc(C)nc1N`, the melting point was determined as 146 °C.

`Nc1ccccc1/C=C/c1cc(/C=C/c2cccc([N+](=O)[O-])c2)c([N+](=O)[O-])cc1[N+](=O)[O-]` showed a melting point of 250 °C. Under `FC(F)(F)c1ccc(N2CCOCC2)c(CCl)c1` stands 52 to 54 °C; under `O=C(O)c1ncccc1O`, 208 to 212 °C. As for `CN(N=O)c1ccccc1`, the melting point came to 14.7 °C. Under `COc1ccc(Cl)cc1I` stands 48 °C; under `O=C(c1c(F)c(F)c(F)c(F)c1F)n1ccnc1`, 56 °C; under `OCCCCCCCCCCCBr`, 46 °C. `CCOC(=O)c1c(SC)nn(C(=O)c2ccccc2)c1N` gave a melting point of 95 °C. To `CCCc1c(C(=O)OCC)cnn1-c1ccc(Cl)cc1` belongs 63 to 65 °C; to `CCN1CCCC1CNC(=O)c1cc(S(=O)(=O)CC)c(N)cc1OC` (centres undefined), 126 °C; to `O=C(c1ccc(C(=O)C(Cl)(Cl)Cl)cc1)C(Cl)(Cl)Cl`, 121 °C. Under `NS(=O)(=O)c1cc2c(s1)C(O)CCS2` (centres undefined) stands 158 °C.

The compound `Cc1cc(Cl)cc(Cl)c1Cl` showed a melting point of 45.5 °C. Under `O=C(Nc1ccccc1)c1ccccc1[N+](=O)[O-]` stands 154 °C; under `CCC(C)(CC)C(C)(C)C`, -42.5 °C; under `O=C(O)c1sccc1-n1cccc1`, 166 °C. To `S=c1sccs1` belongs 49 °C; to `OCC1CCN(c2ncnc3ccsc23)CC1`, 126 to 128 °C. Under `Cc1cc(C(=O)N2CCN(c3ccccc3)CC2)no1` stands 101 to 103 °C; under `CC(=Nc1cccc(N)c1)c1c(O)c2ccccc2n(-c2ccccc2)c1=O`, 200 °C; under `CCCCCCCCCC=CC(=O)O`, 17.1 °C. `O=C(Cl)Cc1ccc2ccccc2c1` yielded a melting point of 60 to 61 °C. To `O=c1ccc(=O)[nH][nH]1` belongs 306 °C. Under `NNC(=S)Nc1cccc(F)c1` stands 164 to 166 °C; under `Nc1ccccc1SCCS(=O)(=O)c1ccc(Cl)cc1`, 135 to 137 °C. Compound `N=C(N)SCCCS(=O)(=O)O` returned a melting point of 240 to 248 °C. Under `c1cc2c3c(ccc2c2c1CC2)CC3` stands 163 °C; under `CN(C)C(=O)SCCCCOc1ccccc1`, 40.5 °C.

In turn, `COc1ccc(Br)cc1[N+](=O)[O-]` returned a melting point of 87 to 88 °C. Under `C=C(C)c1ccc(C)c2ccc(C=O)c-2c1` stands 58 °C; under `CCCc1c(C)nc(NC(=O)NS(=O)(=O)c2cccs2)nc1Cl`, 171 to 173 °C; under `CC(C)(C)OC(=O)N[C@H](Cc1ccc(C#N)cc1)C(=O)O`, 153 °C. To `Cc1cc(C)c(C)c(S(=O)(=O)NCC(=O)O)c1C` belongs 167 °C. Under `Cc1nn(-c2ccccc2)c(Cl)c1C=O` stands 144 to 148 °C; under `COc1ccc(C(C)=O)cc1CCl`, 116 to 118 °C. On to `CC12CCC(C=C/C1=N\O)C2(C)C` (centres undefined), for which the melting point is 145 to 146 °C. To `CC(C)(CCC(=O)O)C(=O)O` belongs 84 °C; to `O=Cc1cc(C(=O)O)ccc1F`, 152 to 153 °C.
